Consider 19 compounds from patent US10017506B2, “ATX modulating agents” (BIOGEN MA INC., priority 2012, dated 2018).

The target in the experiment is T1, Human ATX protein (Homo sapiens, UniProt Q13822).
T1 construct: made in house
As to the kind of experiment: ATX biochemical FRET assay with FS-3 substrate. Conditions: ATX 1.0 μg/mL, 30 minutes pre-incubation, 2 hours at room temperature. Put shortly:
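Enzyme at 1.0 μg/mL final, pre-incubated with compound (10-point, 3-fold series) for 30 min at RT in Tris pH 7.4 buffer with NaCl, KCl, CaCl2, MgCl2 and 1 mg/mL fatty-acid-free BSA. After FS-3 addition, 2 h at RT protected from light; fluorescence at 485/538 nm.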

[1] abbreviates: FRET substrate FS-3 2 μM, read-out: IC50.

Read-outs that look alike come from different tables or passages of the source.

By IC50 is commonly meant the concentration at which inhibition is half-maximal. For `CC[C@H]1CC[C@@H](Oc2ccc3ccc([C@H](C)N[C@H]4C[C@@H](C(=O)O)C4(C)C)cc3c2C(F)(F)F)CC1` [Example 118b, (1R,3S)-3-(((S)-1-(7-((cis-4-ethylcyclohexyl)oxy)-8-(trifluoromethyl)naphthalen-2-yl)ethyl)amino)-2,2-dimethylcyclobutanecarboxylic acid], under setting [1], the 50% inhibitory concentration (IC50) was no more than 100 nM.

As for `CC[C@H]1CC[C@@H](Oc2ccc3ccc([C@@H](C)N[C@H]4C[C@H](C(=O)O)C4(C)C)cc3c2C(F)(F)F)CC1` [Example 118c, (1S,3S)-3-(((R)-1-(7-((cis-4-ethylcyclohexyl)oxy)-8-(trifluoromethyl)naphthalen-2-yl)ethyl)amino)-2,2-dimethylcyclobutanecarboxylic acid], under setting [1], the IC50 is no more than 250 nM.

As for `CC[C@H]1CC[C@@H](Oc2ccc3ccc([C@@H](C)N[C@H]4C[C@@H](C(=O)O)C4(C)C)cc3c2C(F)(F)F)CC1` [Example 118d, (1R,3S)-3-(((R)-1-(7-((cis-4-ethylcyclohexyl)oxy)-8-(trifluoromethyl)naphthalen-2-yl)ethyl)amino)-2,2-dimethylcyclobutanecarboxylic acid], under setting [1], the IC50 is no more than 500 nM.

Turning to `CC(N[C@@H]1C[C@H](C(=O)O)C1(C)C)c1ccc2ccc(O[C@H]3CC[C@@H](C(F)(F)F)CC3)c(C(F)(F)F)c2c1` (stereo partly drawn) [Example 119, (1S,3R)-2,2-dimethyl-3-((1-(8-(trifluoromethyl)-7-((cis-4-(trifluoromethyl)cyclohexyl)oxy)naphthalen-2-yl)ethyl)amino)cyclobutanecarboxylic acid], the concentration for half-maximal inhibition (IC50) under setting [1] is no more than 100 nM.

`CC(N[C@H]1C[C@@H](C(=O)O)C1(C)C)c1ccc2ccc(O[C@H]3CC[C@@H](C(F)(F)F)CC3)c(C(F)(F)F)c2c1` (stereo partly drawn) [Example 120, (1R,3S)-2,2-dimethyl-3-((1-(8-(trifluoromethyl)-7-((cis-4-(trifluoromethyl)cyclohexyl)oxy)naphthalen-2-yl)ethyl)amino)cyclobutanecarboxylic acid]: the IC50 under setting [1] is no more than 100 nM.

As to `C[C@H](N[C@@H]1C[C@H](C(=O)O)C1(C)C)c1ccc2ccc(O[C@H]3CC[C@@H](C(F)(F)F)CC3)c(C(F)(F)F)c2c1` [Example 121b, (1S,3R)-2,2-dimethyl-3-(((S)-1-(8-(trifluoromethyl)-7-((cis-4-(trifluoromethyl)cyclohexyl)oxy)naphthalen-2-yl)ethyl)amino)cyclobutanecarboxylic acid], the IC50 under setting [1] was no more than 100 nM.

Consider `O=C(O)C1CCCN(Cc2ccc3ccc(O[C@H]4CC[C@@H](C(F)(F)F)CC4)c(C(F)(F)F)c3c2)CC1` (stereo partly drawn) [Example 123, 1-((8-(trifluoromethyl)-7-((cis-4-(trifluoromethyl)cyclohexyl)oxy)naphthalen-2-yl)methyl)azepane-4-carboxylic acid], for which, under setting [1], the IC50 is no more than 250 nM.

Consider `O=C(O)[C@H]1CC[C@@H](NCc2ccc3ccc(O[C@H]4CC[C@@H](C(F)(F)F)CC4)c(C(F)(F)F)c3c2)CC1` [Example 124, cis-4-(((8-(trifluoromethyl)-7-((cis-4-(trifluoromethyl)cyclohexyl)oxy)naphthalen-2-yl)methyl)amino)cyclohexanecarboxylic acid], for which, under setting [1], the IC50 is no more than 250 nM.

As for `O=C(O)[C@H]1CC[C@H](NCc2ccc3ccc(O[C@H]4CC[C@@H](C(F)(F)F)CC4)c(C(F)(F)F)c3c2)CC1` [Example 125, trans-4-(((8-(trifluoromethyl)-7-((cis-4-(trifluoromethyl)cyclohexyl)oxy)naphthalen-2-yl)methyl)amino)cyclohexanecarboxylic acid], the IC50 under setting [1] is no more than 500 nM.

Consider `O=C(O)CC1CCC(NCc2ccc3ccc(O[C@H]4CC[C@@H](C(F)(F)F)CC4)c(C(F)(F)F)c3c2)CC1` (stereo partly drawn) [Example 126, 2-(4-(((8-(trifluoromethyl)-7-((cis-4-(trifluoromethyl)cyclohexyl)oxy)naphthalen-2-yl)methyl)amino)cyclohexyl)acetic acid], for which, under setting [1], the half-inhibitory concentration (IC50) is no more than 500 nM.

As for `O=C(O)C1CCC(NCc2ccc3ccc(O[C@H]4CC[C@@H](C(F)(F)F)CC4)c(C(F)(F)F)c3c2)C1` (stereo partly drawn) [Example 127, 3-(((8-(trifluoromethyl)-7-((cis-4-(trifluoromethyl)cyclohexyl)oxy)naphthalen-2-yl)methyl)amino)cyclopentanecarboxylic acid], the IC50 under setting [1] was no more than 500 nM.

In the case of `CC(N[C@H]1CC[C@@H](C(=O)O)CC1)c1ccc2ccc(O[C@H]3CC[C@@H](C(F)(F)F)CC3)c(C(F)(F)F)c2c1` (stereo partly drawn) [Example 129, cis-4-((1-(8-(trifluoromethyl)-7-((cis-4-(trifluoromethyl)cyclohexyl)oxy)naphthalen-2-yl)ethyl)amino)cyclohexanecarboxylic acid], the IC50 under setting [1] was no more than 100 nM.

`CC[C@H]1CC[C@@H](Oc2ccc3ccc(C(C)NC45CCC(C(=O)O)(CC4)C5)cc3c2C(F)(F)F)CC1` (stereo partly drawn) [Example 130, 4-((1-(7-((cis-4-ethylcyclohexyl)oxy)-8-(trifluoromethyl)naphthalen-2-yl)ethyl)amino)bicyclo[2.2.1]heptane-1-carboxylic acid]: the IC50 under setting [1] is no more than 250 nM.

On to `CC[C@H]1CC[C@@H](Oc2ccc3ccc(C(C)NC4CCC(C(=O)O)C4)cc3c2C(F)(F)F)CC1` (stereo partly drawn) [Example 131, 3-((1-(7-((cis-4-ethylcyclohexyl)oxy)-8-(trifluoromethyl)naphthalen-2-yl)ethyl)amino)cyclopentanecarboxylic acid], for which the IC50 under setting [1] was no more than 100 nM.

`CC[C@H]1CC[C@@H](Oc2ccc3ccc(C(C)N4C5CCCC4CC(C(=O)OC)C5)cc3c2C(F)(F)F)CC1` (stereo partly drawn) [Example 132, methyl 9-(1-(7-((cis-4-ethylcyclohexyl)oxy)-8-(trifluoromethyl)naphthalen-2-yl)ethyl)-9-azabicyclo[3.3.1]nonane-3-carboxylate]: the IC50 (IC50, FRET substrate FS-3 2 μM) was no more than 250 nM.

The compound `CC[C@H]1CC[C@@H](Oc2ccc3ccc([C@H](C)N4C5CCCC4CC(C(=O)O)C5)cc3c2C(F)(F)F)CC1` (stereo partly drawn) [Example 133a, 9-((S)-1-(7-((cis-4-ethylcyclohexyl)oxy)-8-(trifluoromethyl)naphthalen-2-yl)ethyl)-9-azabicyclo[3.3.1]nonane-3-carboxylic acid] came in with an IC50 (IC50, FRET substrate FS-3 2 μM) of no more than 100 nM.

As for `CC[C@H]1CC[C@@H](Oc2ccc3ccc([C@@H](C)N4C5CCCC4CC(C(=O)O)C5)cc3c2C(F)(F)F)CC1` (stereo partly drawn) [Example 133b, 9-((R)-1-(7-((cis-4-ethylcyclohexyl)oxy)-8-(trifluoromethyl)naphthalen-2-yl)ethyl)-9-azabicyclo[3.3.1]nonane-3-carboxylic acid], the IC50 (IC50, FRET substrate FS-3 2 μM) is no more than 250 nM.

As for `CC[C@H]1CC[C@@H](Oc2ccc3ccc(C(C)N[C@H]4CC[C@@H](C(=O)O)CC4)cc3c2C(F)(F)F)CC1` (stereo partly drawn) [Example 134, cis-4-((1-(7-((cis-4-ethylcyclohexyl)oxy)-8-(trifluoromethyl)naphthalen-2-yl)ethyl)amino)cyclohexanecarboxylic acid], the IC50 under setting [1] was no more than 100 nM.

Turning to `CC[C@H]1CC[C@@H](Oc2ccc3ccc([C@H](C)N[C@H]4CC[C@@H](C(=O)O)CC4)cc3c2C(F)(F)F)CC1` [Example 135a, cis-4-(((S)-1-(7-((cis-4-ethylcyclohexyl)oxy)-8-(trifluoromethyl)naphthalen-2-yl)ethyl)amino)cyclohexanecarboxylic acid], the IC50 under setting [1] is no more than 100 nM.
